Test results as given in US9999659B2, “Treatments using a peptide and/or vaccine” (AFFIRIS AG, priority 2012, dated 2018).

Columns and labels:
[1] = tested on: polyclonal antibodies in mouse sera raised against original PCSK9 sequence (aa 153-162 or aa 153-165); assay: Competition ELISA: mimotope competes with the original PCSK9 sequence for binding of polyclonal antibodies in mouse sera; conditions: 20 μg peptide incubated with sera; irrelevant peptide = 0% competition
Description: FIGS. 2A and 2B show the ability of PCSK9 mimotopes to compete with the original PCSK9 sequence (aa 153-162 or aa 153-165) for binding polyclonal antibodies in mouse sera raised specifically against the latter.
All mimotopes are compared to the negative group (0% competition by an irrelevant peptide). As a positive control for each competition ELISA the original PCSK9 sequences were used (aa 153-162 or aa 153-165).
The graphs display the ability (in percent) of the mimotopes to compete with the original PCSK9 sequence (aa 153-162 or aa 153-165) for binding polyclonal antibodies raised against the latter.
20 μg of each indicated peptide was incubated with sera from mice injected with original PCSK9 sequence (aa 153-162 or aa 153-165: SEQ ID No. 2). Sera were then incubated on ELISA plates coated with the original PCSK9 sequence (aa 153-162 or aa 153-165: SEQ ID No. 2). Detection was performed with anti-mouse IgG antibodies, ABTS was used as a chromogenic substrate and optical density (OD) was measured at 405 nm.
Mimotopes diminishing >20% subsequent binding of the polyclonal antibodies from the sera to the original human PCSK9 epitope (aa 153-162 or 153-165: SEQ ID No. 3) coated on the ELISA plates were considered as competing mimotopes and as good candidates.

[2] = tested on: polyclonal antibodies specific for human PCSK9 aa 153-162 or aa 153-165; assay: Binding ELISA: mimotopes coated on plates, detected by mouse sera raised against the original PCSK9 sequence; conditions: mimotope coated at 1 μmol/mL; titer = serum dilution where 50% of ODmax is reached
Description: FIGS. 1A and 1B show detection of PCSK9 mimotopes sequences by mouse sera containing polyclonal antibodies specific for human PCSK9 aa 153-162 or aa 153-165
The graphs display median titers from all mimotopes compared to the irrelevant negative control. As a positive control the original human PCSK9 sequence is included: aa 153-162 or aa 153-165. Mimotopes with values over 1:50.000 are considered as good candidates.
Mimotopes were coated on ELISA plates at a concentration of 1 μmol/mL. After blocking unspecific binding (1% BSA in PBS) appropriate dilutions of sera from mice injected with the original human PCSK9 sequence aa 153-162 or aa 153-165 (SEQ ID No. 3) were added and incubated for approximately 1 hour. Subsequently, detection with anti-mouse IgG antibodies was performed. ABTS was used as substrate. OD measurements were performed at 405 nm and titers were defined as the dilution of the serum where 50% of the ODmax is reached.

3 (ERTKSDPGAQHREF) [compound 3]
% Competition compared to the related control group [1]: 0%

4 (ITELSRWPNI) [compound 4]
% Competition compared to the related control group [1]: 0%

5 (TIPWNLERIT; Artificial Sequence, Mimotope) [compound 5]
Median Titer Binding ELISA (ODmax/2) [2]: 198,000
% Competition compared to the related control group [1]: 52%

6 (VIPWNLERIT; Artificial Sequence, Mimotope) [compound 6]
Median Titer Binding ELISA (ODmax/2) [2]: 12,000
% Competition compared to the related control group [1]: 51%

7 (AIPWNLERIT; Artificial Sequence, Mimotope) [compound 7]
Median Titer Binding ELISA (ODmax/2) [2]: 199,000
% Competition compared to the related control group [1]: 88%

8 (SVPWNLERIT; Artificial Sequence, Mimotope) [compound 8]
Median Titer Binding ELISA (ODmax/2) [2]: 197,000
% Competition compared to the related control group [1]: 62%

9 (SQPWNLERIT; Artificial Sequence, Mimotope) [compound 9]
Median Titer Binding ELISA (ODmax/2) [2]: 149,000
% Competition compared to the related control group [1]: 30%

10 (SAPWNLERIT; Artificial Sequence, Mimotope) [compound 10]
Median Titer Binding ELISA (ODmax/2) [2]: 131,000
% Competition compared to the related control group [1]: 76%

11 (SGPWNLERITPPR; Artificial Sequence, Mimotope) [compound 11]
Median Titer Binding ELISA (ODmax/2) [2]: 81,000
% Competition compared to the related control group [1]: 54%

12 (SITWNLERIT; Artificial Sequence, Mimotope) [compound 12]
Median Titer Binding ELISA (ODmax/2) [2]: 124,000
% Competition compared to the related control group [1]: 62%

13 (SIAWNLERIT; Artificial Sequence, Mimotope) [compound 13]
Median Titer Binding ELISA (ODmax/2) [2]: 147,000
% Competition compared to the related control group [1]: 78%

14 (SIVWNLERITPPR; Artificial Sequence, Mimotope) [compound 14]
Median Titer Binding ELISA (ODmax/2) [2]: 146,000
% Competition compared to the related control group [1]: 78%

15 (SIPFNLERIT; Artificial Sequence, Mimotope) [compound 15]
Median Titer Binding ELISA (ODmax/2) [2]: 42,000
% Competition compared to the related control group [1]: 15%

16 (SIPANLERIT; Artificial Sequence, Mimotope) [compound 16]
Median Titer Binding ELISA (ODmax/2) [2]: 22,000
% Competition compared to the related control group [1]: 8%

17 (SIPGNLERIT; Artificial Sequence, Mimotope) [compound 17]
Median Titer Binding ELISA (ODmax/2) [2]: 21,000
% Competition compared to the related control group [1]: 0%

18 (SIPHNLERIT; Artificial Sequence, Mimotope) [compound 18]
Median Titer Binding ELISA (ODmax/2) [2]: 23,000
% Competition compared to the related control group [1]: 0%

19 (SIPDNLERIT; Artificial Sequence, Mimotope) [compound 19]
Median Titer Binding ELISA (ODmax/2) [2]: 23,000
% Competition compared to the related control group [1]: 3%

20 (SIPSNLERIT; Artificial Sequence, Mimotope) [compound 20]
Median Titer Binding ELISA (ODmax/2) [2]: 22,000
% Competition compared to the related control group [1]: 7%

21 (SIPWSLERIT; Artificial Sequence, Mimotope) [compound 21]
Median Titer Binding ELISA (ODmax/2) [2]: 147,000
% Competition compared to the related control group [1]: 73%

22 (SIPWALERIT; Artificial Sequence, Mimotope) [compound 22]
Median Titer Binding ELISA (ODmax/2) [2]: 157,000
% Competition compared to the related control group [1]: 75%

23 (SIPWQLERITPPR; Artificial Sequence, Mimotope) [compound 23]
Median Titer Binding ELISA (ODmax/2) [2]: 224,000
% Competition compared to the related control group [1]: 79%

24 (SIPWDLERITPPR; Artificial Sequence, Mimotope) [compound 24]
Median Titer Binding ELISA (ODmax/2) [2]: 231,000
% Competition compared to the related control group [1]: 74%

25 (SIPWNAERIT; Artificial Sequence, Mimotope) [compound 25]
Median Titer Binding ELISA (ODmax/2) [2]: 156,000
% Competition compared to the related control group [1]: 73%

26 (SIPWNGERIT; Artificial Sequence, Mimotope) [compound 26]
Median Titer Binding ELISA (ODmax/2) [2]: 56,000
% Competition compared to the related control group [1]: 52%

27 (SIPWNYERIT; Artificial Sequence, Mimotope) [compound 27]
Median Titer Binding ELISA (ODmax/2) [2]: 115,000
% Competition compared to the related control group [1]: 76%

28 (SIPWNDERIT; Artificial Sequence, Mimotope) [compound 28]
Median Titer Binding ELISA (ODmax/2) [2]: 131,000
% Competition compared to the related control group [1]: 71%

29 (SIPWNFERITPPR; Artificial Sequence, Mimotope) [compound 29]
Median Titer Binding ELISA (ODmax/2) [2]: 186,000
% Competition compared to the related control group [1]: 79%

30 (SIPWNVERITPPR; Artificial Sequence, Mimotope) [compound 30]
Median Titer Binding ELISA (ODmax/2) [2]: 197,000
% Competition compared to the related control group [1]: 78%

31 (SIPWNLARIT; Artificial Sequence, Mimotope) [compound 31]
Median Titer Binding ELISA (ODmax/2) [2]: 34,000
% Competition compared to the related control group [1]: 13%

32 (SIPWNLDRITPPR; Artificial Sequence, Mimotope) [compound 32]
Median Titer Binding ELISA (ODmax/2) [2]: 151,000
% Competition compared to the related control group [1]: 53%

33 (SIPWNLEKIT; Artificial Sequence, Mimotope) [compound 33]
Median Titer Binding ELISA (ODmax/2) [2]: 59,000
% Competition compared to the related control group [1]: 19%

34 (SIPWNLEAIT; Artificial Sequence, Mimotope) [compound 34]
Median Titer Binding ELISA (ODmax/2) [2]: 54,000
% Competition compared to the related control group [1]: 15%

35 (SIPWNLEDIT; Artificial Sequence, Mimotope) [compound 35]
Median Titer Binding ELISA (ODmax/2) [2]: 48,000
% Competition compared to the related control group [1]: 13%

36 (SIPWNLERLT; Artificial Sequence, Mimotope) [compound 36]
Median Titer Binding ELISA (ODmax/2) [2]: 192,000
% Competition compared to the related control group [1]: 76%

37 (SIPWNLERTT; Artificial Sequence, Mimotope) [compound 37]
Median Titer Binding ELISA (ODmax/2) [2]: 177,000
% Competition compared to the related control group [1]: 73%

38 (SIPWNLERAT; Artificial Sequence, Mimotope) [compound 38]
Median Titer Binding ELISA (ODmax/2) [2]: 149,000
% Competition compared to the related control group [1]: 77%

39 (SIPWNLERIL; Artificial Sequence, Mimotope) [compound 39]
Median Titer Binding ELISA (ODmax/2) [2]: 168,000
% Competition compared to the related control group [1]: 56%

40 (SIPWNLERIQ; Artificial Sequence, Mimotope) [compound 40]
Median Titer Binding ELISA (ODmax/2) [2]: 181,000
% Competition compared to the related control group [1]: 64%

41 (SIPWNLERIA; Artificial Sequence, Mimotope) [compound 41]
Median Titer Binding ELISA (ODmax/2) [2]: 189,000
% Competition compared to the related control group [1]: 80%

42 (SIPWNLERISPPR; Artificial Sequence, Mimotope) [compound 42]
Median Titer Binding ELISA (ODmax/2) [2]: 719,000
% Competition compared to the related control group [1]: 79%

43 (SIPWNLERITAPR; Artificial Sequence, Mimotope) [compound 43]
Median Titer Binding ELISA (ODmax/2) [2]: 226,000
% Competition compared to the related control group [1]: 70%

44 (SIPWNLERITSPR; Artificial Sequence, Mimotope) [compound 44]
Median Titer Binding ELISA (ODmax/2) [2]: 153,000
% Competition compared to the related control group [1]: 68%

45 (SIPWNLERITPAR; Artificial Sequence, Mimotope) [compound 45]
Median Titer Binding ELISA (ODmax/2) [2]: 184,000
% Competition compared to the related control group [1]: 74%

46 (SIPWNLERITPVR; Artificial Sequence, Mimotope) [compound 46]
Median Titer Binding ELISA (ODmax/2) [2]: 265,000
% Competition compared to the related control group [1]: 75%

47 (SIPWNLERITPTR; Artificial Sequence, Mimotope) [compound 47]
Median Titer Binding ELISA (ODmax/2) [2]: 155,000
% Competition compared to the related control group [1]: 73%

48 (SIPWNLERITPNR; Artificial Sequence, Mimotope) [compound 48]
Median Titer Binding ELISA (ODmax/2) [2]: 186,000
% Competition compared to the related control group [1]: 70%

49 (SIPWNLERITPPA; Artificial Sequence, Mimotope) [compound 49]
Median Titer Binding ELISA (ODmax/2) [2]: 163,000
% Competition compared to the related control group [1]: 65%
